In patent US6747021B2, “Cryptophycin compound” (Eli Lilly and Company, priority 2000, dated 2004):
Where two headings read alike, the source gives them in different places.

How the values were obtained:
[1] = system: COLON ADENOCARCINOMA-26/A; format: in vivo, murine; conditions: IV 6.5 mg/kg/inj days 1,5,9; total dose 19.5 mg/kg; Balb/C female mice
Description: (§1) Inhibition of tumors transplanted into mice is an accepted procedure for studying the efficacy of antitumor agents (Corbett, et al., In vivo Methods for Screening and Preclinical Testing; Use of rodent solid tumors for drug discovery., In: Anticancer Drug Development Guide: Preclinical Screening, Clinical Trials, and Approval, B. Teicher (ed), Humana Press Inc., Totowa, N.J., Chapter 5, pages 75-99 (1997); (Corbett, et al., Int. J. Pharmacog., 33, Supplement, 102-122 (1995)). Murine tumors or human xenographs were implanted essentially as described by Corbett in In vivo Methods for Screening and Preclinical Testing; Use of rodent solid tumors for drug discovery. Briefly, the murine tumor or human xenograph was implanted subcutaneously using either 12-gauge trocar implants or counted number of cells. The location for the trocar insertion is midway between the axillary and inguinal region along the side of the mouse. The trocar is slipped approximately ¾ of an inch subcutaneously up toward the axilla before discharging the tumor fragment, and pinching the skin as the trocar is removed. Alternatively, human tumor cells prepared from a […] of donor tumors (5×10^6 cells) were implanted subcutaneously in a hind-leg of a male or female nude mouse (Charles River). Either a test compound in vehicle or vehicle alone was administered by intravenous bolus injection (iv), intraperitoneal injection (ip), or oral gavage (po). Each treatment group, as well as a group of untreated control animals, consisted of five animals per group in each experiment. Subcutaneous tumor response was monitored by tumor volume measurement performed twice each week over the course of the experiment (60-120 days). Body weights were taken as a general measure of toxicity. The subcutaneous tumor data were analyzed by determining the median tumor weight for each treatment group over the course of the experiment and calculating the tumor growth delay as the difference in days for the treatment versus the control tumors to reach a volume of either 500 or 1000 mm^3.
(§2) Cryptophycin-309 (309) was tested against a variety of murine and human tumors substantially as described supra. Cryptophycin-55 glycinate (55-GLY), Taxol, and Adriamycin (Adria) were also included in certain tests for purposes of comparison. Cryptophycin 55 glycinate is known in the art (WO 98/08505, Example 9) and has the following structure: [drawing 9]
(§3) Tumor Weight(mg)=(a×b^2)/2 where a=tumor length (mm) and b=tumor width (mm).
(§4) Tumor Growth Delay=T−C where T is the median time (days) required for the treatment group tumors to reach a predetermined size, and C is the median time (days) for the control group tumors to reach the same size. Tumor-free survivors are excluded from this calculation, and are tabulated separately (Tumor Free).
(§5) Log Kill=Tumor Growth Delay/(3.32)(Td)
(§6) where Tumor Growth Delay is as previously defined and Td is tumor volume doubling time (days), estimated from the best fit straight line from a log-linear growth plot of the control group of tumors in exponential growth (100-800 mg range)
(§7) %T/C mass—The treatment and control groups are measured when the control group tumors reach approximately 700 to 1200 mg in size (median group). The median tumor weight of each group is determined (including zeros). The T/C value in percent is an indication of antitumor effectiveness. A T/C≦42% is considered significant antitumor activity. A T/C<10% is considered to indicate highly significant antitumor activity.
(§8) Body Weight Loss Nadir—A body weight loss nadir (mean of group) of greater than 20% or drug deaths greater than 20% are considered to indicate an excessively toxic dosage in single course trials.
(§9) Activity Rating—the Activity Rating is derived from the Log Kill according to the following table: […]

[2] = system: MAMMARY ADENOCARCINOMA-16/C/Adr; assay: Early stage murine mammary adenocarcinoma-16/C/Adr subcutaneous tumor assay; format: in vivo; conditions: C3H female mice
Description: as §1, §2, §3, §4, §5, §6, §7, §8, §9

[3] = system: COLON ADENOCARCINOMA 51/A; assay: Early stage murine colon adenocarcinoma 51/A subcutaneous tumor assay; format: in vivo; conditions: IV 6.5 mg/kg/inj days 3,6,9; total dose 19.5 mg/kg; CDF female mice
Description: as §1, §2, §3, §4, §5, §6, §7, §8, §9

[4] = system: MAMMARY ADENOCARCINOMA 16/C; format: in vivo, murine; conditions: C3H/HeN female mice
Description: as §1, §2, §3, §4, §5, §6, §7, §8, §9

[5] = system: MAMMARY ADENOCARCINOMA-17/ADR/Resist.; format: in vivo, murine; conditions: C3H female mice
Description: as §1, §2, §3, §4, §5, §6, §7, §8, §9

[6] = system: PANCREATIC DUCTAL ADENOCARCINOMA #02; format: in vivo, murine; conditions: BDF1 female mice, experiment ##
Description: as §1, §2, §3, §4, §5, §6, §7, §8, §9

[7] = system: HUMAN COLON ADENOCARCINOMA 15; format: in vivo; conditions: Balb/C SCID female mice
Description: as §1, §2, §3, §4, §5, §6, §7, §8, §9

HUMAN COLON ADEN[…]-116 = assay: Early stage human colon adenocarcinoma HCT-116 xenograft assay; format: in vivo; conditions: Balb/C SCID female mice
Description: as §1, §2, §3, §4, §5, §6, §7, §8, §9

[8] = IV 7.5 mg/kg/inj days 1 and 7, total dose 15 mg/kg
[9] = IV 28 mg/kg/inj days 3,5,7,9,11, total dose 140 mg/kg
[10] = IV 42 mg/kg/inj days 3,5,7,9,11, total dose 210 mg/kg
[11] = IV 28 mg/kg/inj days 1,3,5,7,9, total dose 140 mg/kg
[12] = IV 42 mg/kg/inj days 1,3,5,7,9, total dose 210 mg/kg
[13] = IV 42 mg/kg/inj days 1,3,7,9, total dose 168 mg/kg
[14] = IV 32 mg/kg/inj twice/day days 3,5,7,9,11, total dose 320 mg/kg

COc1cccc2c1C(=O)c1c(O)c3c(c(O)c1C2=O)C[C@@](O)(C(=O)CO)C[C@@H]3O[C@H]1C[C@H](N)[C@H](O)[C@H](C)O1 [Adriamycin]
% T/C MASS [1]: 44%
DRUG DEATHS [1]: 0/5
LOG KILL [1]: None
MEDIAN TUMOR WEIGHT [1]: 393 mg
DRUG DEATHS [2, 8]: 0/5
LOG KILL [2, 8]: None
MEDIAN TUMOR WEIGHT [2, 8]: 1096 mg
% T/C MASS [3]: 0%
ACTIVITY RATING [3]: +++ (2.0-2.8)
DRUG DEATHS [3]: 0/6
GROWTH DELAY [3]: 16.6 days
LOG KILL [3]: 2.0
MEDIAN TUMOR WEIGHT [3]: 0 mg

COc1ccc(C[C@H]2NC(=O)/C=C/C[C@@H]([C@H](C)[C@@H](OC(=O)CN)[C@@H](Cl)c3ccccc3)OC(=O)[C@H](CC(C)C)OC(=O)C(C)(C)CNC2=O)cc1Cl [Cryptophycin 55-GLY, Cryptophycin-55 glycinate]
% T/C MASS [4, 9]: 0%
ACTIVITY RATING [4, 9]: ++++ (>2.8)
DRUG DEATHS [4, 9]: 0/5
GROWTH DELAY [4, 9]: 15 days
LOG KILL [4, 9]: 3.5
MEDIAN TUMOR WEIGHT [4, 9]: 0 mg
% T/C MASS [4, 10]: 0%
ACTIVITY RATING [4, 10]: ++++ (>2.8)
DRUG DEATHS [4, 10]: 0/5
GROWTH DELAY [4, 10]: 17.5 days
LOG KILL [4, 10]: 4.1
MEDIAN TUMOR WEIGHT [4, 10]: 0 mg
% T/C MASS [5, 11]: 24%
ACTIVITY RATING [5, 11]: ++ (1.3-1.9)
DRUG DEATHS [5, 11]: 0/5
GROWTH DELAY [5, 11]: 5.25 days
LOG KILL [5, 11]: 1.6
MEDIAN TUMOR WEIGHT [5, 11]: 577 mg
% T/C MASS [5, 12]: 0%
ACTIVITY RATING [5, 12]: +++ (2.0-2.8)
DRUG DEATHS [5, 12]: 0/5
GROWTH DELAY [5, 12]: 7.6 days
LOG KILL [5, 12]: 2.3
MEDIAN TUMOR WEIGHT [5, 12]: 0 mg
% T/C MASS [6, 11]: 9%
ACTIVITY RATING [6, 11]: ++ (1.3-1.9)
DRUG DEATHS [6, 11]: 0/5
GROWTH DELAY [6, 11]: 13 days
LOG KILL [6, 11]: 1.8
MEDIAN TUMOR WEIGHT [6, 11]: 95 mg
% T/C MASS [6, 12]: 0%
ACTIVITY RATING [6, 12]: +++ (2.0-2.8)
DRUG DEATHS [6, 12]: 0/5
GROWTH DELAY [6, 12]: 16 days
LOG KILL [6, 12]: 2.2
MEDIAN TUMOR WEIGHT [6, 12]: 0 mg
% T/C MASS [2, 11]: 24%
ACTIVITY RATING [2, 11]: ++ (1.3-1.9)
DRUG DEATHS [2, 11]: 0/5
GROWTH DELAY [2, 11]: 6.2 days
LOG KILL [2, 11]: 1.7
MEDIAN TUMOR WEIGHT [2, 11]: 48 mg
% T/C MASS [2, 13]: 0%
ACTIVITY RATING [2, 13]: +++ (2.0-2.8)
DRUG DEATHS [2, 13]: 0/5
GROWTH DELAY [2, 13]: 7.8 days
LOG KILL [2, 13]: 2.1
MEDIAN TUMOR WEIGHT [2, 13]: 0 mg
% T/C MASS [7, 9]: 15%
ACTIVITY RATING [7, 9]: +++ (2.0-2.8)
DRUG DEATHS [7, 9]: 0/5
GROWTH DELAY [7, 9]: 21.5 days
LOG KILL [7, 9]: 2.2
MEDIAN TUMOR WEIGHT [7, 9]: 171 mg
% T/C MASS [7, 14]: 0%
ACTIVITY RATING [7, 14]: ++++ (>2.8)
DRUG DEATHS [7, 14]: 0/5
GROWTH DELAY [7, 14]: 56 days
LOG KILL [7, 14]: 4.0
MEDIAN TUMOR WEIGHT [7, 14]: 0 mg
% T/C MASS [7, 10]: 5.5%
ACTIVITY RATING [7, 10]: +++ (2.0-2.8)
DRUG DEATHS [7, 10]: 0/5
GROWTH DELAY [7, 10]: 21.5 days
LOG KILL [7, 10]: 2.2
MEDIAN TUMOR WEIGHT [7, 10]: 63 mg
% T/C MASS (HUMAN COLON ADEN[…]-116; [9]): 5.5%
ACTIVITY RATING (HUMAN COLON ADEN[…]-116; [9]): +++ (2.0-2.8)
DRUG DEATHS (HUMAN COLON ADEN[…]-116; [9]): 0/5
GROWTH DELAY (HUMAN COLON ADEN[…]-116; [9]): 22 days
LOG KILL (HUMAN COLON ADEN[…]-116; [9]): 2.65
MEDIAN TUMOR WEIGHT (HUMAN COLON ADEN[…]-116; [9]): 63 mg
% T/C MASS (HUMAN COLON ADEN[…]-116; [14]): 0%
ACTIVITY RATING (HUMAN COLON ADEN[…]-116; [14]): ++++ (>2.8)
DRUG DEATHS (HUMAN COLON ADEN[…]-116; [14]): 0/4
GROWTH DELAY (HUMAN COLON ADEN[…]-116; [14]): 35 days
LOG KILL (HUMAN COLON ADEN[…]-116; [14]): 4.2
MEDIAN TUMOR WEIGHT (HUMAN COLON ADEN[…]-116; [14]): 0 mg
% T/C MASS (HUMAN COLON ADEN[…]-116; [10]): 0%
ACTIVITY RATING (HUMAN COLON ADEN[…]-116; [10]): ++++ (>2.8)
DRUG DEATHS (HUMAN COLON ADEN[…]-116; [10]): 0/5
GROWTH DELAY (HUMAN COLON ADEN[…]-116; [10]): 25 days
LOG KILL (HUMAN COLON ADEN[…]-116; [10]): 3.0
MEDIAN TUMOR WEIGHT (HUMAN COLON ADEN[…]-116; [10]): 0 mg
